In ChEMBL document CHEMBL1201862, “PubChem BioAssay data set” (2004):
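How tested: cells in 96-well plates exposed to compound for 48 hours at five concentrations. GI50 is the concentration that inhibits growth by half.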 Activity calls are given as the source filed them. Cut-off read from the data, not from the text of the source: active = GI50 up to about 1.1 µM and inactive = higher.

Tests used:
Experiment in all cases: NCI-60 cell line screen, 48 h
SF-268 = system: SF-268
NCI-H226 = system: NCI-H226
SN12C = system: SN12C
UO-31 = system: UO-31
NCI-H460 = system: NCI-H460
OVCAR-3 = system: OVCAR-3
HCT-15 = system: HCT-15
HT-29 = system: HT-29
T47D = system: T47D
UACC-257 = system: UACC-257
MDA-N = system: MDA-N
HCT-116 = system: HCT-116
ACHN = system: ACHN
NCI/ADR-RES = system: NCI/ADR-RES
MDA-MB-435 = system: MDA-MB-435
MDA-MB-231 = system: MDA-MB-231
HL-60 = system: HL-60
MOLT-4 = system: MOLT-4
HCC 2998 = system: HCC 2998
RPMI-8226 = system: RPMI-8226
LOX IMVI = system: LOX IMVI
K562 = system: K562
SK-MEL-28 = system: SK-MEL-28
KM12 = system: KM12
SF-295 = system: SF-295
SK-OV-3 = system: SK-OV-3
U-251 = system: U-251
Malme-3M = system: Malme-3M
DU-145 = system: DU-145
A498 = system: A498
UACC-62 = system: UACC-62
A549 = system: A549
OVCAR-5 = system: OVCAR-5
TK-10 = system: TK-10
COLO 205 = system: COLO 205
EKVX = system: EKVX
SK-MEL-2 = system: SK-MEL-2
786-0 = system: 786-0
NCI-H522 = system: NCI-H522
RXF 393 = system: RXF 393
PC-3 = system: PC-3
HOP-92 = system: HOP-92
SW-620 = system: SW-620
IGROV-1 = system: IGROV-1
SR = system: SR
SF-539 = system: SF-539
NCI-H23 = system: NCI-H23
Hs-578T = system: Hs-578T
OVCAR-8 = system: OVCAR-8
CCRF-CEM = system: CCRF-CEM
SNB-75 = system: SNB-75
M14 = system: M14
SNB-19 = system: SNB-19
OVCAR-4 = system: OVCAR-4
HOP-62 = system: HOP-62
SK-MEL-5 = system: SK-MEL-5
CAKI-1 = system: CAKI-1
MCF7 = system: MCF7

Measured: GI50

N#CSC/C(Cl)=C/Cl.N#CSC/C(Cl)=C\Cl
> 100 µM: HCT-15
active: HCC 2998 0.069 µM
inactive: SF-268 > 100 µM | NCI-H226 > 100 µM | SN12C > 100 µM | UO-31 > 100 µM | NCI-H460 > 100 µM | OVCAR-3 > 100 µM | HT-29 > 100 µM | T47D > 100 µM | UACC-257 > 100 µM | MDA-N > 100 µM | HCT-116 > 100 µM | ACHN > 100 µM | NCI/ADR-RES > 100 µM | MDA-MB-435 > 100 µM | MDA-MB-231 > 100 µM | HL-60 43.9 µM | MOLT-4 29.7 µM | RPMI-8226 92.3 µM | LOX IMVI 20.4 µM | K562 > 100 µM | SK-MEL-28 > 100 µM | KM12 > 100 µM | SF-295 > 100 µM | SK-OV-3 > 100 µM | U-251 > 100 µM | Malme-3M > 100 µM | DU-145 > 100 µM | A498 > 100 µM | UACC-62 > 100 µM | A549 > 100 µM | OVCAR-5 63.2 µM | TK-10 > 100 µM | COLO 205 > 100 µM | EKVX > 100 µM | SK-MEL-2 > 100 µM | 786-0 > 100 µM | NCI-H522 > 100 µM | RXF 393 > 100 µM | PC-3 > 100 µM | HOP-92 > 100 µM | SW-620 > 100 µM | IGROV-1 > 100 µM | SR > 100 µM | SF-539 > 100 µM | NCI-H23 > 100 µM | Hs-578T > 100 µM | OVCAR-8 > 100 µM | CCRF-CEM 34.8 µM | SNB-75 > 100 µM | M14 > 100 µM | SNB-19 > 100 µM | OVCAR-4 > 100 µM | HOP-62 > 100 µM | SK-MEL-5 > 100 µM

CC(=O)OC1c2ccccc2CC2(OC(C)=O)c3ccccc3C12 (configuration not stated)
inactive: SF-268 > 100 µM | NCI-H226 > 100 µM | SN12C > 100 µM | UO-31 > 100 µM | NCI-H460 > 100 µM | OVCAR-3 > 100 µM | HT-29 > 100 µM | T47D > 100 µM | UACC-257 > 100 µM | MDA-N > 100 µM | HCT-116 > 100 µM | ACHN > 100 µM | NCI/ADR-RES > 100 µM | MDA-MB-435 > 100 µM | MDA-MB-231 > 100 µM | HL-60 > 10 µM | MOLT-4 > 100 µM | HCC 2998 > 100 µM | RPMI-8226 > 100 µM | LOX IMVI > 100 µM | K562 > 100 µM | SK-MEL-28 > 100 µM | KM12 > 100 µM | SF-295 > 100 µM | SK-OV-3 > 100 µM | U-251 > 100 µM | Malme-3M > 100 µM | DU-145 > 100 µM | A498 > 100 µM | UACC-62 > 100 µM | A549 > 100 µM | OVCAR-5 > 100 µM | TK-10 > 100 µM | COLO 205 > 100 µM | EKVX > 100 µM | SK-MEL-2 > 100 µM | 786-0 > 100 µM | RXF 393 > 100 µM | CAKI-1 > 100 µM | PC-3 > 100 µM | HOP-92 91 µM | SW-620 > 100 µM | IGROV-1 > 100 µM | SR > 100 µM | SF-539 > 100 µM | NCI-H23 > 100 µM | Hs-578T > 100 µM | OVCAR-8 > 100 µM | CCRF-CEM > 100 µM | SNB-75 > 100 µM | M14 > 100 µM | MCF7 80.4 µM | SNB-19 > 100 µM | OVCAR-4 > 100 µM | HOP-62 > 100 µM
> 100 µM: HCT-15
